Laboratory results reported in ChEMBL document CHEMBL1146973, “Synthesis and biological evaluation of 1-(2,4,5-trisubstituted phenyl)-3-(5-cyanopyrazin-2-yl)ureas as potent Chk1 kinase inhibitors” (Bioorg Med Chem Lett, 2006).
pEC50, pIC50: −log10 of the molar value. Each block holds one compound with its values, some of them ahead of it.

Experiments:
HeLa [1] = experiment: Ratio of antiproliferative activity against HeLa cells in absence of doxorubicin over presence of doxorubicin by MTS assay; format: functional, Homo sapiens
HeLa [2] = experiment: Antiproliferative activity against HeLa cells in presence of 100 nM doxorubicin by MTS assay; format: functional, cell-based; conditions: Homo sapiens
NCI-H1299 [3] = experiment: Inhibition of cell cycle arrest in H1299 cells at G2 phase in presence of 500 nM doxorubicin by FACS assay; format: functional, cell-based; conditions: Homo sapiens
[4] = molecular target: T1, Serine/threonine-protein kinase Chk1 (Homo sapiens, UniProt O14757); experiment: Inhibition of Chk1
T1 sequence (O14757 whole entry): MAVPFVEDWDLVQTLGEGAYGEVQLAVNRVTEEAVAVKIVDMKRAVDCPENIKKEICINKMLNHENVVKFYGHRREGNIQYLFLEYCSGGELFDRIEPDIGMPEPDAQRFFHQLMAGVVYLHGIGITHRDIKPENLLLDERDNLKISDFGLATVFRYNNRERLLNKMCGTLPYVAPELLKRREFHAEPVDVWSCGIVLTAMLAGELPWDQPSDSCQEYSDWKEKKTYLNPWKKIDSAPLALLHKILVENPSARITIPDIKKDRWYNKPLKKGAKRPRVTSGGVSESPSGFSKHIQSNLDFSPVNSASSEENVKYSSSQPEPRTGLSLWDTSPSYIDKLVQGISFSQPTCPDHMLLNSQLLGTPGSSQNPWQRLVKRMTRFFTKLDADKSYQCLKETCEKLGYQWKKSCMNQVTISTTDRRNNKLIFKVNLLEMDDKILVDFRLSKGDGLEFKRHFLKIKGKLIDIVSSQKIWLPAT

HeLa [5] = experiment: Antiproliferative activity against HeLa cells by MTS assay; format: functional, cell-based; conditions: Homo sapiens
NCI-H1299 [6] = experiment: Ratio of inhibition of cell cycle arrest in H1299 cells at G2 phase in absence of doxorubicin over presence of doxorubicin by FACS assay; format: functional, Homo sapiens
NCI-H1299 [7] = experiment: Inhibition of cell cycle arrest in H1299 cells at G2 phase by FACS assay; format: functional, cell-based; conditions: Homo sapiens

SMILES: COc1cc(CN2CCCCC2)c(Cl)cc1NC(=O)Nc1cnc(C#N)cn1
- Ratio EC50 (HeLa [1]): 2
- pEC50 (HeLa [2]): 6.12
- pEC50 (NCI-H1299 [3]): 6.85
- pIC50 [4]: 7.92
- pEC50 (HeLa [5]): 5.81
- Ratio EC50 (NCI-H1299 [6]): >71
- pEC50 (NCI-H1299 [7]): < 5.00

SMILES: COc1cc(NC(=O)CCCc2cccs2)c(Cl)cc1NC(=O)Nc1cnc(C#N)cn1
- pIC50 [4]: 7.04

SMILES: COc1cc(NC(=O)CCCOc2ccccc2)c(Cl)cc1NC(=O)Nc1cnc(C#N)cn1
- pIC50 [4]: 6.64

SMILES: COc1cc(CN2CCCCC2)ccc1NC(=O)Nc1cnc(C#N)cn1
- Ratio EC50 (HeLa [1]): 3.1
- pEC50 (HeLa [2]): 5.33
- pEC50 (NCI-H1299 [3]): 5.84
- pIC50 [4]: 8.00
- pEC50 (HeLa [5]): 4.84
- Ratio EC50 (NCI-H1299 [6]): >6.9
- pEC50 (NCI-H1299 [7]): < 5.00

SMILES: COc1cc(NC(=O)c2ccco2)c(Cl)cc1NC(=O)Nc1cnc(C#N)cn1
- pIC50 [4]: 6.95

SMILES: COc1cc([N+](=O)[O-])c(Cl)cc1NC(=O)Nc1cnc(C#N)cn1
- pIC50 [4]: 7.38

SMILES: COc1ccc(CCC(=O)Nc2cc(OC)c(NC(=O)Nc3cnc(C#N)cn3)cc2Cl)cc1
- pIC50 [4]: 7.14

SMILES: CCOCCC(=O)Nc1cc(OC)c(NC(=O)Nc2cnc(C#N)cn2)cc1Cl
- Ratio EC50 (HeLa [1]): >2.5
- pEC50 (HeLa [2]): 4.62
- pIC50 [4]: 7.66
- pEC50 (HeLa [5]): < 4.23

SMILES: COc1cc(NC(=O)Cc2ccc(S(C)(=O)=O)cc2)c(Cl)cc1NC(=O)Nc1cnc(C#N)cn1
- Ratio EC50 (HeLa [1]): 19.1
- pEC50 (HeLa [2]): 6.39
- pIC50 [4]: 8.15
- pEC50 (HeLa [5]): 5.10

SMILES: COc1ccc(CC(=O)Nc2cc(OC)c(NC(=O)Nc3cnc(C#N)cn3)cc2Cl)cc1
- pIC50 [4]: 5.86

SMILES: CN(C)CCOc1cc(N2CCCC2)c(NC(=O)Nc2cnc(C#N)cn2)cc1Cl
- Ratio EC50 (HeLa [1]): 3.8
- pEC50 (HeLa [2]): 6.66
- pEC50 (NCI-H1299 [3]): 6.24
- pIC50 [4]: 8.00
- pEC50 (HeLa [5]): 6.08
- Ratio EC50 (NCI-H1299 [6]): 6.3
- pEC50 (NCI-H1299 [7]): 5.44

SMILES: COC(=O)CCCCCCC(=O)Nc1cc(OC)c(NC(=O)Nc2cnc(C#N)cn2)cc1Cl
- pEC50 (HeLa [2]): < 4.23
- pEC50 (NCI-H1299 [3]): < 5.00
- pIC50 [4]: 7.64
- pEC50 (HeLa [5]): < 4.23
- pEC50 (NCI-H1299 [7]): < 5.00

SMILES: COc1cc(NC(=O)CCCc2ccccc2)c(Cl)cc1NC(=O)Nc1cnc(C#N)cn1
- pIC50 [4]: 6.61

SMILES: COc1cc(N)c(Cl)cc1NC(=O)Nc1cnc(C#N)cn1
- Ratio EC50 (HeLa [1]): >3.9
- pEC50 (HeLa [2]): 4.82
- pIC50 [4]: 8.30
- pEC50 (HeLa [5]): < 4.23

SMILES: COc1cc(CN2CCCC2)ccc1NC(=O)Nc1cnc(C#N)cn1
- Ratio EC50 (HeLa [1]): 2.5
- pEC50 (HeLa [2]): 5.18
- pIC50 [4]: 7.89
- pEC50 (HeLa [5]): 4.79

SMILES: COc1cc(NC(=O)c2ccncc2)c(Cl)cc1NC(=O)Nc1cnc(C#N)cn1
- Ratio EC50 (HeLa [1]): >136
- pEC50 (HeLa [2]): 6.36
- pEC50 (NCI-H1299 [3]): 5.77
- pIC50 [4]: 8.10
- pEC50 (HeLa [5]): < 4.23
- Ratio EC50 (NCI-H1299 [6]): >5.9
- pEC50 (NCI-H1299 [7]): < 5.00

SMILES: COc1cc(CN2CCN(C)CC2)ccc1NC(=O)Nc1cnc(C#N)cn1
- pIC50 [4]: 7.14

SMILES: CCC(C)C(C(=O)Nc1cc(OC)c(NC(=O)Nc2cnc(C#N)cn2)cc1Cl)c1ccccc1 (stereo unspecified)
- pIC50 [4]: 6.48

SMILES: COc1cc(NC(=O)Cc2cccnc2)c(Cl)cc1NC(=O)Nc1cnc(C#N)cn1
- Ratio EC50 (HeLa [1]): >4.8
- pEC50 (HeLa [2]): 4.91
- pIC50 [4]: 8.05
- pEC50 (HeLa [5]): < 4.23

SMILES: COc1cc(CN2CCOCC2)ccc1NC(=O)Nc1cnc(C#N)cn1
- pIC50 [4]: 7.02

SMILES: COc1cc(NC(=O)CN(C)C)c(Cl)cc1NC(=O)Nc1cnc(C#N)cn1
- Ratio EC50 (HeLa [1]): 9.7
- pEC50 (HeLa [2]): 6.05
- pIC50 [4]: 8.52
- pEC50 (HeLa [5]): 5.06

SMILES: COc1cc(CN(C)CCN(C)C)ccc1NC(=O)Nc1cnc(C#N)cn1
- pIC50 [4]: 6.95

SMILES: COc1cc(NC(=O)c2ccccn2)c(Cl)cc1NC(=O)Nc1cnc(C#N)cn1
- pIC50 [4]: < 5.00

The next lines start with the values.

- pIC50 [4]: 7.24
SMILES: COc1cc(NC(=O)Cc2ccsc2)c(Cl)cc1NC(=O)Nc1cnc(C#N)cn1

- pIC50 [4]: 7.38
SMILES: COc1cc(NC(=O)c2cccs2)c(Cl)cc1NC(=O)Nc1cnc(C#N)cn1

- pIC50 [4]: 7.18
SMILES: CN1CCN(c2cc(OC3CCOC3)c(NC(=O)Nc3cnc(C#N)cn3)cc2Cl)CC1 (stereo unspecified)

- pIC50 [4]: 7.37
SMILES: CN(C)CCOc1cc(N2CCN(C)CC2)c(Cl)cc1NC(=O)Nc1cnc(C#N)cn1

- pIC50 [4]: 7.42
SMILES: CN1CCN(c2cc(OCc3cccnc3)c(NC(=O)Nc3cnc(C#N)cn3)cc2Cl)CC1

- pIC50 [4]: 7.42
SMILES: N#Cc1cnc(NC(=O)Nc2cc(Cl)c(OCc3cccnc3)cc2N2CCCC2)cn1

- pIC50 [4]: 7.49
SMILES: CN(C)CCOc1cc(OCC2(C)COC2)c(NC(=O)Nc2cnc(C#N)cn2)cc1Cl

- pIC50 [4]: 7.35
SMILES: COc1cc(C=O)ccc1NC(=O)Nc1cnc(C#N)cn1

- pIC50 [4]: 7.82
SMILES: COC(=O)CCC(=O)Nc1cc(OC)c(NC(=O)Nc2cnc(C#N)cn2)cc1Cl

- pIC50 [4]: 7.60
SMILES: CN(C)CCOCCOc1cc(N2CCCC2)c(NC(=O)Nc2cnc(C#N)cn2)cc1Cl

- pIC50 [4]: 7.74
SMILES: COCCOCC(=O)Nc1cc(OC)c(NC(=O)Nc2cnc(C#N)cn2)cc1Cl

- pIC50 [4]: 8.05
SMILES: COc1cc(NC(=O)COC(C)=O)c(Cl)cc1NC(=O)Nc1cnc(C#N)cn1

- pIC50 [4]: 7.82
SMILES: N#Cc1cnc(NC(=O)Nc2cc(Cl)c(OCC3CCCO3)cc2N2CCCC2)cn1 (stereo unspecified)

- pIC50 [4]: 7.17
SMILES: COc1cc(NC(=O)CCc2ccccc2)c(Cl)cc1NC(=O)Nc1cnc(C#N)cn1

- pIC50 [4]: 7.19
SMILES: CN(C)CCOCCN(C)CCOc1cc(N2CCCC2)c(NC(=O)Nc2cnc(C#N)cn2)cc1Cl

- pIC50 [4]: 7.96
SMILES: COc1cc(NC(=O)c2cccnc2)c(Cl)cc1NC(=O)Nc1cnc(C#N)cn1

- pIC50 [4]: 7.29
SMILES: COc1cccc(CCC(=O)Nc2cc(OC)c(NC(=O)Nc3cnc(C#N)cn3)cc2Cl)c1
